From ChEMBL document CHEMBL1146311, “Carbonic anhydrase activators: L-Adrenaline plugs the active site entrance of isozyme II, activating better isoforms I, IV, VA, VII, and XIV” (Bioorg Med Chem Lett, 2007)

How the values were obtained:
NCCc1c[nH]cn1 [1] = conditions: Homo sapiens; 10 uM
Description: (§1) Activity of human recombinant CA1 at 10 uM by stopped-flow technique

[2] = tested on: CNC[C@H](O)c1ccc(O)c(O)c1; conditions: Homo sapiens; 10 uM
Description: as §1

[3] = target: Carbonic anhydrase 1 (Homo sapiens) (UniProt P00915)
Description: Activation of human recombinant CA1 by CO2 hydration method

[4] = target: Carbonic anhydrase 7 (Homo sapiens) (UniProt P43166)
Description: Activation of human recombinant CA7 by CO2 hydration method

[5] = target: Carbonic anhydrase 5A, mitochondrial (Homo sapiens) (UniProt P35218)
Description: Activation of human recombinant CA5A by CO2 hydration method

[6] = target: Carbonic anhydrase 14 (Homo sapiens) (UniProt Q9ULX7)
Description: Activation of human recombinant CA14 by CO2 hydration method

[7] = target: Carbonic anhydrase 2 (Homo sapiens) (UniProt P00918)
Description: Activation of human recombinant CA2 by CO2 hydration method

[8] = target: Carbonic anhydrase 4 (Homo sapiens) (UniProt P22748)
Description: Activation of human recombinant CA4 by CO2 hydration method

NCCc1c[nH]cn1 [9] = conditions: Homo sapiens; 10 uM; remark: listed apart in the source
Description: (§2) Activity of human recombinant CA2 at 10 uM by stopped-flow technique

[10] = tested on: CNC[C@H](O)c1ccc(O)c(O)c1; conditions: Homo sapiens; 10 uM; remark: listed apart in the source
Description: as §2

Sequence of Carbonic anhydrase 5A, mitochondrial (Homo sapiens) (P35218 whole entry): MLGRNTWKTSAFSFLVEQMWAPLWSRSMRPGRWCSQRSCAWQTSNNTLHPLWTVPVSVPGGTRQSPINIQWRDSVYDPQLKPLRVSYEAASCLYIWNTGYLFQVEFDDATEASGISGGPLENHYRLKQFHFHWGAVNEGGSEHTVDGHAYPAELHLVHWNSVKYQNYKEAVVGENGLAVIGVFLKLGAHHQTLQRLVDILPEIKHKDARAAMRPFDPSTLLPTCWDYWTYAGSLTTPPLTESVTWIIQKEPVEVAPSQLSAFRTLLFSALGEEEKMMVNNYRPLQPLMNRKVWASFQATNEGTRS
Sequence of Carbonic anhydrase 1 (Homo sapiens), P00915 (P00915 whole entry): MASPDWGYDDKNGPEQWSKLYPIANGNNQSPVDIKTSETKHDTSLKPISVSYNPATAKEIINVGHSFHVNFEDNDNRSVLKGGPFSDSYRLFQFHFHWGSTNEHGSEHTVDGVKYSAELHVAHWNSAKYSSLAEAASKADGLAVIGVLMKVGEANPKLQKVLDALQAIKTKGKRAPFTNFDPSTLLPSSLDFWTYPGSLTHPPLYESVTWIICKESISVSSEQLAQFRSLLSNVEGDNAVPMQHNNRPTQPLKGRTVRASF
Sequence of Carbonic anhydrase 1 (Homo sapiens) (P00915 2-261 limits assumed): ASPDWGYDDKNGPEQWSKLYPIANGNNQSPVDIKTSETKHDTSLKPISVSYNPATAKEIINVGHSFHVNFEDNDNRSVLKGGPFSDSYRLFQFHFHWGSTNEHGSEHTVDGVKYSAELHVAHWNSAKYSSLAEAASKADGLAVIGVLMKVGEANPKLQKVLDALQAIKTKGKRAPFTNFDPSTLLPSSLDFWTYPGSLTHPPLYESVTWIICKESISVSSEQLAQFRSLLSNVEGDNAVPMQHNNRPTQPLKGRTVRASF
Sequence of Carbonic anhydrase 7 (Homo sapiens) (P43166 whole entry): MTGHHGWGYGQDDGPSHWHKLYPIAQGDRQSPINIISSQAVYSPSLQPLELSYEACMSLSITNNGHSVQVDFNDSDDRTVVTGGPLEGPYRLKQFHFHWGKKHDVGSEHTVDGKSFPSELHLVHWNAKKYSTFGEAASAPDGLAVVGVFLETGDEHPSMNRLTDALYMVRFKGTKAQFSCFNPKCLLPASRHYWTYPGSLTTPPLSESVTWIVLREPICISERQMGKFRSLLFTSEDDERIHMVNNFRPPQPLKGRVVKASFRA
Sequence of Carbonic anhydrase 4 (Homo sapiens) (P22748 whole entry): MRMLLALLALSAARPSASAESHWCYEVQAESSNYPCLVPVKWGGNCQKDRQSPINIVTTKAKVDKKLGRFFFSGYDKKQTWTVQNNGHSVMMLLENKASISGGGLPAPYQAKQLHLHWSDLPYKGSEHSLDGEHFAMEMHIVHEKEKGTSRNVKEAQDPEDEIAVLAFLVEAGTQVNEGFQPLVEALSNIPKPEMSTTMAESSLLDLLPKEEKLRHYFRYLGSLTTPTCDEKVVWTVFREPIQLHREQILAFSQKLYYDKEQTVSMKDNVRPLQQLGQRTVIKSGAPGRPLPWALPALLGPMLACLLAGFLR
Sequence of Carbonic anhydrase 14 (Homo sapiens) (Q9ULX7 whole entry): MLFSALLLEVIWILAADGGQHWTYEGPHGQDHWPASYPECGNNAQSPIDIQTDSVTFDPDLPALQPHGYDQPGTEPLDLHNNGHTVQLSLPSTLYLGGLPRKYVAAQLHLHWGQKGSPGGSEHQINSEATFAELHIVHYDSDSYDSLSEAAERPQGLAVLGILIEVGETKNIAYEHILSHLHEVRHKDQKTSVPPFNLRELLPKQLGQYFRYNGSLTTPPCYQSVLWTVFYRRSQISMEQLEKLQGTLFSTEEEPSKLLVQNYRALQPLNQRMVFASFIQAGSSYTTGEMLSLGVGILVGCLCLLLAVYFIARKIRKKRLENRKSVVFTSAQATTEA

Compound | kcat (NCCc1c[nH]cn1 [1]) | kcat [2] | Ka [3] | Ka [4] | Ka [5] | Ka [6] | Ka [7] | Ka [8] | kcat (NCCc1c[nH]cn1 [9]) | kcat [10]
Carbonic anhydrase 1 (Homo sapiens), P00915 | 12.7 10^5/s | 10.4 10^5/s |  |  |  |  |  |  |  | 
NCCc1c[nH]cn1 |  |  | 0.05 µM | 1.3 µM | 2.5 µM | 1.9 µM | 74 µM | 31 µM |  | 
CNC[C@H](O)c1ccc(O)c(O)c1 |  |  | 0.09 µM | 60 µM | 63 µM | 36 µM | 96 µM | 45 µM |  | 
Carbonic anhydrase 2 (Homo sapiens) (from UniProt P00918) |  |  |  |  |  |  |  |  | 2 10^6/s | 1.7 10^6/s
